{"source": "patent US20080207573A1", "about": "“COMPOUNDS FOR TREATING VIRAL INFECTIONS” (priority 2006, published 2008)"}
{"system": "HIV-1 laboratory strain, NL4-3", "test": "MT-4 Cytoprotection Assay (protection from HIV-induced cytopathic effect, WST-1 readout)", "format": "cell-based", "conditions": "Human immunodeficiency virus 1, NL43; list of representative compounds; read-out: EC50 of less than about 100 nm (representative compounds)", "procedure": "MT-4 Cytoprotection Assay\nThe HTLV-1 transformed T cell line, MT-4, is highly susceptible to HIV-1 infection. Anti-HIV-1 agents were evaluated in this target cell line by protection from the HIV-induced cytopathic effect. In this assay, viability of both HIV-1 and mock-infected cells was assessed in a […] assay that monitors the ability of metabolically-active cells to reduce the tetrazolium salt WST-1. Cytoprotection by antiviral compounds is indicated by the positive readout of increased WST-1 cleavage.\nBriefly, exponentially growing MT-4 cells were mock-infected or batch-infected with the HIV-1 laboratory strain, NL4-3, at a multiplicity of infection of 0.0005. Following a two hour infection, the cells were washed to remove unbound virus and plated in the presence of increasing concentrations of compound. After four days incubation, cytoprotection in the infected cells and compound toxicity in mock-infected cells were analyzed using the WST-1 assay.", "units": {"EC50": "nM"}}
{"smiles": "C=C(C)[C@@H]1CC[C@]2(C(=O)NCc3ccc(OC)cc3)CC[C@]3(C)[C@H](CC[C@@H]4[C@@]5(C)CC[C@H](OC(=O)CC(C)(C)C(=O)O)C(C)(C)[C@@H]5CC[C@]43C)[C@@H]12", "note": "[Compound 69]", "EC50": "< 100"}
{"smiles": "C=C(C)[C@@H]1CC[C@]2(C(=O)NCc3ccco3)CC[C@]3(C)[C@H](CC[C@@H]4[C@@]5(C)CC[C@H](OC(=O)CC(C)(C)C(=O)O)C(C)(C)[C@@H]5CC[C@]43C)[C@@H]12", "note": "[Compound 74]", "EC50": "< 100"}
{"smiles": "C=C(C)[C@@H]1CC[C@]2(C(=O)NCc3ccncc3)CC[C@]3(C)[C@H](CC[C@@H]4[C@@]5(C)CC[C@H](OC(=O)CC(C)(C)C(=O)O)C(C)(C)[C@@H]5CC[C@]43C)[C@@H]12", "note": "[Compound 75]", "EC50": "< 100"}
{"smiles": "C=C(C)[C@@H]1CC[C@]2(C(=O)Nc3ccc(OC)cc3)CC[C@]3(C)[C@H](CC[C@@H]4[C@@]5(C)CC[C@H](OC(=O)CC(C)(C)C(=O)O)C(C)(C)[C@@H]5CC[C@]43C)[C@@H]12", "note": "[Compound 77]", "EC50": "< 100"}
{"smiles": "C=C(C)[C@@H]1CC[C@]2(C(=O)NCc3ccccc3OC)CC[C@]3(C)[C@H](CC[C@@H]4[C@@]5(C)CC[C@H](OC(=O)CC(C)(C)C(=O)O)C(C)(C)[C@@H]5CC[C@]43C)[C@@H]12", "note": "[Compound 78]", "EC50": "< 100"}
{"smiles": "C=C(C)[C@@H]1CC[C@]2(C(=O)NCc3cccc(OC)c3)CC[C@]3(C)[C@H](CC[C@@H]4[C@@]5(C)CC[C@H](OC(=O)CC(C)(C)C(=O)O)C(C)(C)[C@@H]5CC[C@]43C)[C@@H]12", "note": "[Compound 79]", "EC50": "< 100"}
{"smiles": "C=C(C)[C@@H]1CC[C@]2(C(=O)NCc3ccc(Cl)cc3)CC[C@]3(C)[C@H](CC[C@@H]4[C@@]5(C)CC[C@H](OC(=O)CC(C)(C)C(=O)O)C(C)(C)[C@@H]5CC[C@]43C)[C@@H]12", "note": "[Compound 80]", "EC50": "< 100"}
{"smiles": "C=C(C)[C@@H]1CC[C@]2(C(=O)N[C@H](C)c3ccc(OC)cc3)CC[C@]3(C)[C@H](CC[C@@H]4[C@@]5(C)CC[C@H](OC(=O)CC(C)(C)C(=O)O)C(C)(C)[C@@H]5CC[C@]43C)[C@@H]12", "note": "[Compound 81]", "EC50": "< 100"}
{"smiles": "C=C(C)[C@@H]1CC[C@]2(C(=O)NCc3ccc4c(c3)OCO4)CC[C@]3(C)[C@H](CC[C@@H]4[C@@]5(C)CC[C@H](OC(=O)CC(C)(C)C(=O)O)C(C)(C)[C@@H]5CC[C@]43C)[C@@H]12", "note": "[Compound 82]", "EC50": "< 100"}
{"smiles": "C=C(C)[C@@H]1CC[C@]2(C(=O)NCc3ccc4c(c3)OCCO4)CC[C@]3(C)[C@H](CC[C@@H]4[C@@]5(C)CC[C@H](OC(=O)CC(C)(C)C(=O)O)C(C)(C)[C@@H]5CC[C@]43C)[C@@H]12", "note": "[Compound 84]", "EC50": "< 100"}
{"smiles": "C=C(C)[C@@H]1CC[C@]2(C(=O)NCc3ccc4occc4c3)CC[C@]3(C)[C@H](CC[C@@H]4[C@@]5(C)CC[C@H](OC(=O)CC(C)(C)C(=O)O)C(C)(C)[C@@H]5CC[C@]43C)[C@@H]12", "note": "[Compound 87]", "EC50": "< 100"}
{"smiles": "C=C(C)[C@@H]1CC[C@]2(C(=O)NCCc3cccc(OC)c3)CC[C@]3(C)[C@H](CC[C@@H]4[C@@]5(C)CC[C@H](OC(=O)CC(C)(C)C(=O)O)C(C)(C)[C@@H]5CC[C@]43C)[C@@H]12", "note": "[Compound 88]", "EC50": "< 100"}
{"smiles": "C=C(C)[C@@H]1CC[C@]2(C(=O)NCCc3ccncc3)CC[C@]3(C)[C@H](CC[C@@H]4[C@@]5(C)CC[C@H](OC(=O)CC(C)(C)C(=O)O)C(C)(C)[C@@H]5CC[C@]43C)[C@@H]12", "note": "[Compound 91]", "EC50": "< 100"}
{"smiles": "C=C(C)[C@@H]1CC[C@]2(C(=O)NCCc3ccccn3)CC[C@]3(C)[C@H](CC[C@@H]4[C@@]5(C)CC[C@H](OC(=O)CC(C)(C)C(=O)O)C(C)(C)[C@@H]5CC[C@]43C)[C@@H]12", "note": "[Compound 92]", "EC50": "< 100"}
{"smiles": "C=C(C)[C@@H]1CC[C@]2(C(=O)NCCc3cccnc3)CC[C@]3(C)[C@H](CC[C@@H]4[C@@]5(C)CC[C@H](OC(=O)CC(C)(C)C(=O)O)C(C)(C)[C@@H]5CC[C@]43C)[C@@H]12", "note": "[Compound 93]", "EC50": "< 100"}
